Reference: patent US4248887A, “Antibacterial compounds, processes for their preparation and compositions containing them” (priority 1978, dated 1981)
Values after ≈ are worked out from the molar mass of the structure shown. Where two headings read alike, the source gives them in different places.

Assays:
M. bovis ATCC 25025 = assay: microbe, parasite or virus in culture; type: cell-based; settings: ATCC25025
N. catarrhalis 1502 = assay: MIC by serial dilution in nutrient agar (human bacteria); settings: Neisseria
Strep. uberis SPU1 = assay: MIC against veterinary bacteria; settings: Streptococcus uberis
H. influenzae Q1 = assay: MIC by serial dilution in nutrient agar (human bacteria); settings: Haemophilus influenzae
[1] = system: M. arthritidis ATCC 14124; assay: Anti-mycoplasma MIC; type: cell-based; settings: M. arthritidis ATCC 14124; Agar (serial dilution in Friis' agar); read-out: MIC
Staph. aureus Oxford = assay: MIC by serial dilution in nutrient agar (human bacteria); settings: Staphylococcus aureus
M. gallisepticum S6 = assay: Anti-mycoplasma MIC; type: cell-based; settings: Mycoplasmoides gallisepticum; M. gallisepticum S6; Agar (serial dilution in Friis' agar); read-out: MIC
M. pneumoniae ATCC 15492 = assay: Anti-mycoplasma MIC; type: cell-based; settings: Mycoplasmoides pneumoniae, ATCC15492, M. pneumoniae ATCC 15492, read-out: MIC
Bord. bronchiseptica BO9 = assay: MIC against veterinary bacteria; settings: Bordetella bronchiseptica
[2] = system: Staph. aureus B4 (pen resistant); assay: MIC against veterinary bacteria; settings: Staphylococcus aureus
Bord. bronchiseptica BO8 = assay: MIC against veterinary bacteria; settings: Bordetella bronchiseptica
Strep. pyogenes B 2788 = assay: MIC by serial dilution in nutrient agar (human bacteria); settings: Streptococcus pyogenes, B2788
[3] = system: M. bovigenitalium ATCC 14173; assay: Anti-mycoplasma MIC; type: cell-based; settings: M. bovigenitalium ATCC 14173; Agar (serial dilution in Friis' agar); read-out: MIC
Past. multocida 1633 = assay: MIC by serial dilution in nutrient agar (human bacteria); settings: Pasteurella multocida
M. suipneumoniae Str. 11 = assay: Anti-mycoplasma MIC; type: cell-based; settings: Mesomycoplasma hyopneumoniae; M. suipneumoniae Str. 11; Broth (Friis' broth, microtiter method); read-out: MIC
Past. multocida PA1 = assay: MIC against veterinary bacteria; settings: Pasteurella multocida
M. synoviae ATCC 25204 = assay: Anti-mycoplasma MIC; type: cell-based; settings: Mycoplasmopsis synoviae, ATCC25204; M. synoviae ATCC 25204; Agar (serial dilution in Friis' agar); read-out: MIC
[4] = system: M. hyosynoviae ATCC 25591; assay: Anti-mycoplasma MIC; type: cell-based; settings: M. hyosynoviae ATCC 25591; Agar (serial dilution in Friis' agar); read-out: MIC
M. fermentans MWKL4 = assay: Anti-mycoplasma MIC; type: cell-based; settings: Mycoplasmopsis fermentans, read-out: MIC
M. pulmonis JB = assay: Anti-mycoplasma MIC; type: cell-based; settings: Mycoplasmopsis pulmonis, read-out: MIC
Strep. agalactiae SPA1 = assay: MIC against veterinary bacteria; settings: Streptococcus agalactiae
B. subtilis = assay: MIC by serial dilution in nutrient agar (human bacteria); settings: Bacillus subtilis
[5] = system: M. alkalescens NCTC 10135; assay: Anti-mycoplasma MIC; type: cell-based; settings: M. alkalescens NCTC 10135; Agar (serial dilution in Friis' agar); read-out: MIC
M. pneumoniae 427a = assay: Anti-mycoplasma MIC; type: cell-based; settings: Mycoplasmoides pneumoniae, read-out: MIC
Past. haemolytica PA5 = assay: MIC against veterinary bacteria; settings: Mannheimia haemolytica
M. hyorhinis ATCC 23234 = assay: Anti-mycoplasma MIC; type: cell-based; settings: Mesomycoplasma hyorhinis, ATCC23234; M. hyorhinis ATCC 23234; Agar (serial dilution in Friis' agar); read-out: MIC
[6] = system: Staph. aureus 152 (pen sensitive); assay: MIC against veterinary bacteria; settings: Staphylococcus aureus
Strep. dysgalactiae SPD1 = assay: MIC against veterinary bacteria; settings: Streptococcus dysgalactiae
M. dispar NCTC 10125 = assay: Anti-mycoplasma MIC; type: cell-based; settings: M. dispar NCTC 10125; Broth (Friis' broth, microtiter method); read-out: MIC
Strep. pyogenes A 64/848 = assay: MIC by serial dilution in nutrient agar (human bacteria); settings: Streptococcus pyogenes, A64/848
M. dispar H225 = assay: Anti-mycoplasma MIC; type: cell-based; settings: M. dispar H225; Broth (Friis' broth, microtiter method); read-out: MIC
Strep. pyogenes C 2761 = assay: MIC by serial dilution in nutrient agar (human bacteria); settings: Streptococcus pyogenes, C2761
Strep. pneumoniae CN33 = assay: as above; settings: Streptococcus pneumoniae
M. bovis NCTC 10131 = assay: microbe, parasite or virus in culture; type: cell-based; settings: NCTC10131
[7] = system: M. suipneumoniae J2206/183b; assay: Anti-mycoplasma MIC; type: cell-based; settings: Mesomycoplasma hyopneumoniae
Staph. aureus Russell = assay: MIC by serial dilution in nutrient agar (human bacteria); settings: Staphylococcus aureus
Past. multocida PA2 = assay: MIC against veterinary bacteria; settings: Pasteurella multocida
H. influenzae Wy21 = assay: MIC by serial dilution in nutrient agar (human bacteria); settings: Haemophilus influenzae
[8] = Agar (serial dilution in Friis' agar)
[9] = Broth (Friis' broth, microtiter method)

SMILES: C=CCOC(=O)/C=C(\C)CC1OCC(C/C=C/C(C)C(C)O)C(O)C1O (stereo not drawn) [Allyl, Allyl Monate C]
- MIC (M. bovis ATCC 25025): 0.078 µg/mL (≈ 0.212 µM)
- MIC (N. catarrhalis 1502): 0.05 µg/mL (≈ 0.136 µM)
- MIC (Strep. uberis SPU1): 1.25 µg/mL (≈ 3.39 µM)
- MIC (H. influenzae Q1): 0.5 µg/mL (≈ 1.36 µM)
- MIC [1]: > 10 µg/mL
- MIC (Staph. aureus Oxford): 0.1 µg/mL (≈ 0.271 µM)
- MIC (M. gallisepticum S6): > 10 µg/mL
- MIC (M. pneumoniae ATCC 15492; [8]): 10 µg/mL (≈ 27.1 µM)
- MIC (M. pneumoniae ATCC 15492; [9]): 10 µg/mL (≈ 27.1 µM)
- MIC (Bord. bronchiseptica BO9): 40 µg/mL (≈ 109 µM)
- MIC [2]: 0.625 µg/mL (≈ 1.7 µM)
- MIC (Bord. bronchiseptica BO8): > 80 µg/mL
- MIC (Strep. pyogenes B 2788): 2.5 µg/mL (≈ 6.78 µM)
- MIC [3]: 0.078 µg/mL (≈ 0.212 µM)
- MIC (Past. multocida 1633): 2.5 µg/mL (≈ 6.78 µM)
- MIC (M. suipneumoniae Str. 11): 0.312 µg/mL (≈ 0.847 µM)
- MIC (Past. multocida PA1): 2.5 µg/mL (≈ 6.78 µM)
- MIC (M. synoviae ATCC 25204): 0.039 µg/mL (≈ 0.106 µM)
- MIC [4]: 1.25 µg/mL (≈ 3.39 µM)
- MIC (M. fermentans MWKL4; [8]): 0.156 µg/mL (≈ 0.423 µM)
- MIC (M. fermentans MWKL4; [9]): 0.039 µg/mL (≈ 0.106 µM)
- MIC (M. pulmonis JB; [8]): 0.156 µg/mL (≈ 0.423 µM)
- MIC (M. pulmonis JB; [9]): 0.039 µg/mL (≈ 0.106 µM)
- MIC (Strep. agalactiae SPA1): 5 µg/mL (≈ 13.6 µM)
- MIC (B. subtilis): 1 µg/mL (≈ 2.71 µM)
- MIC [5]: 0.078 µg/mL (≈ 0.212 µM)
- MIC (M. pneumoniae 427a; [8]): 5 µg/mL (≈ 13.6 µM)
- MIC (M. pneumoniae 427a; [9]): 10 µg/mL (≈ 27.1 µM)
- MIC (Past. haemolytica PA5): 20 µg/mL (≈ 54.3 µM)
- MIC (M. hyorhinis ATCC 23234): 2.5 µg/mL (≈ 6.78 µM)
- MIC [6]: 0.625 µg/mL (≈ 1.7 µM)
- MIC (Strep. dysgalactiae SPD1): 5 µg/mL (≈ 13.6 µM)
- MIC (M. dispar NCTC 10125): 0.156 µg/mL (≈ 0.423 µM)
- MIC (Strep. pyogenes A 64/848): 2.5 µg/mL (≈ 6.78 µM)
- MIC (M. dispar H225): 0.078 µg/mL (≈ 0.212 µM)
- MIC (Strep. pyogenes C 2761): 10 µg/mL (≈ 27.1 µM)
- MIC (Strep. pneumoniae CN33): 2.5 µg/mL (≈ 6.78 µM)
- MIC (M. bovis NCTC 10131): 0.078 µg/mL (≈ 0.212 µM)
- MIC ([7]; M. suipneumoniae J2206/183b, Broth (Friis' broth, microtiter method), read-out: MIC): 1.25 µg/mL (≈ 3.39 µM)
- MIC (Staph. aureus Russell): 1 µg/mL (≈ 2.71 µM)
- MIC (Past. multocida PA2): 0.312 µg/mL (≈ 0.847 µM)

SMILES: C/C(=C\C(=O)OCCCCCCO)CC1OCC(C/C=C/C(C)C(C)O)C(O)C1O (stereo not drawn) [6-Hydroxyhexyl, 6-Hydroxyhexyl Monate C]
- MIC (M. bovis ATCC 25025): < 0.02 µg/mL
- MIC (Strep. uberis SPU1): 0.312 µg/mL (≈ 0.728 µM)
- MIC (H. influenzae Q1): 0.2 µg/mL (≈ 0.467 µM)
- MIC [1]: 5 µg/mL (≈ 11.7 µM)
- MIC (Staph. aureus Oxford): 0.2 µg/mL (≈ 0.467 µM)
- MIC (M. gallisepticum S6): 10 µg/mL (≈ 23.3 µM)
- MIC (M. pneumoniae ATCC 15492; [8]): 1.25 µg/mL (≈ 2.92 µM)
- MIC (M. pneumoniae ATCC 15492; [9]): 0.625 µg/mL (≈ 1.46 µM)
- MIC (Bord. bronchiseptica BO9): 5 µg/mL (≈ 11.7 µM)
- MIC [2]: 1.25 µg/mL (≈ 2.92 µM)
- MIC (Bord. bronchiseptica BO8): > 80 µg/mL
- MIC (Strep. pyogenes B 2788): 5 µg/mL (≈ 11.7 µM)
- MIC [3]: 0.039 µg/mL (≈ 0.091 µM)
- MIC (Past. multocida 1633): 1 µg/mL (≈ 2.33 µM)
- MIC (M. suipneumoniae Str. 11): 0.625 µg/mL (≈ 1.46 µM)
- MIC (Past. multocida PA1): 2.5 µg/mL (≈ 5.83 µM)
- MIC (M. synoviae ATCC 25204): < 0.02 µg/mL
- MIC [4]: 0.078 µg/mL (≈ 0.182 µM)
- MIC (M. fermentans MWKL4; [8]): 0.078 µg/mL (≈ 0.182 µM)
- MIC (M. fermentans MWKL4; [9]): < 0.02 µg/mL
- MIC (M. pulmonis JB; [8]): 0.039 µg/mL (≈ 0.091 µM)
- MIC (M. pulmonis JB; [9]): < 0.02 µg/mL
- MIC (Strep. agalactiae SPA1): 5 µg/mL (≈ 11.7 µM)
- MIC (B. subtilis): 0.5 µg/mL (≈ 1.17 µM)
- MIC [5]: < 0.02 µg/mL
- MIC (M. pneumoniae 427a; [8]): 1.25 µg/mL (≈ 2.92 µM)
- MIC (M. pneumoniae 427a; [9]): 0.625 µg/mL (≈ 1.46 µM)
- MIC (Past. haemolytica PA5): 40 µg/mL (≈ 93.3 µM)
- MIC (M. hyorhinis ATCC 23234): 1.25 µg/mL (≈ 2.92 µM)
- MIC [6]: 1.25 µg/mL (≈ 2.92 µM)
- MIC (Strep. dysgalactiae SPD1): 1.25 µg/mL (≈ 2.92 µM)
- MIC (H. influenzae Wy21): 0.2 µg/mL (≈ 0.467 µM)
- MIC (M. dispar NCTC 10125): 0.156 µg/mL (≈ 0.364 µM)
- MIC (Strep. pyogenes A 64/848): 1 µg/mL (≈ 2.33 µM)
- MIC (M. dispar H225): 0.156 µg/mL (≈ 0.364 µM)
- MIC (Strep. pyogenes C 2761): 5 µg/mL (≈ 11.7 µM)
- MIC (M. bovis NCTC 10131): < 0.02 µg/mL
- MIC ([7]; J2206/183B): 1.25 µg/mL (≈ 2.92 µM)
- MIC (Staph. aureus Russell): 1 µg/mL (≈ 2.33 µM)
- MIC (Past. multocida PA2): 2.5 µg/mL (≈ 5.83 µM)
